The values below come from US10071090B2 (priority 2014, dated 2018).

Structures are written as SMILES.

For data set [1] the following is noted: in vivo, po; cited from earlier work.
Data set [2] can be described thus: Solubility of oxymorphone in adhesive systems. Conditions: in general. Format: physicochemical. The source says: A variety of adhesive systems, enhancers and cosolvents were employed to observe permeation differences within these systems. In general, solubility in acrylic adhesives (i.e. Duro-Tak®) was higher, and thus the driving force out of the patch would be relatively lower. Solubility in silicone adhesives was lower and thus provided a much higher driving constant out of the formulation and into the skin; however, due to the relatively lower solubility, a solubility enhancer that also assisted in solubilising the skin was utilized.

Turning to `COc1ccc2c3c1O[C@H]1C(=O)CC[C@H]4[C@@H](C2)N(C)CC[C@]314` [Hydrocodone], the Bioavailability in data set [1] is 80%.

Turning to `COc1ccc2c3c1O[C@H]1C(=O)CC[C@@]4(O)[C@@H](C2)N(C)CC[C@]314` [Oxycodone], in data set [1], the Bioavailability is 87%.

Turning to `CN1CC[C@]23c4c5ccc(O)c4O[C@H]2C(=O)CC[C@@]3(O)[C@H]1C5` [Oxymorphone], the “Solubility in silicone adhesives” value in data set [2] (compared with acrylic adhesives) was “lower”. Besides, the “solubility in acrylic adhesives (i.e. Duro-Tak®)” value in data set [2] (compared with silicone adhesives) is listed as “higher”. In data set [1], the Bioavailability was 10%.
